Experimental data as given in ChEMBL document CHEMBL3046114, “Synthesis and phytotoxic activity of novel acylthiourea and 2H-1,2,4-thiadiazolo[2,3-]pyrimidine derivatives” (2012).

Assays:
Type in all cases: functional
Settings in all cases: read-out: GI
Digitaria ciliaris [1] = assay: Phytotoxicity against Digitaria ciliaris germinated seed assessed as growth inhibition at 100 mg/L after 72 hr by culture dish method
Brassica napus [2] = assay: Phytotoxicity against Brassica napus (oilseed rape) germinated seed assessed as growth inhibition at 100 mg/L after 72 hr by culture dish method
Echinochloa crus-galli [3] = assay: Phytotoxicity against Echinochloa crus-galli (barnyard grass) germinated seed assessed as growth inhibition at 10 mg/L after 72 hr by culture dish method
Chenopodium ficifolium [4] = assay: Phytotoxicity against Chenopodium ficifolium germinated seed assessed as growth inhibition at 100 mg/L after 72 hr by culture dish method
Chenopodium ficifolium [5] = assay: Phytotoxicity against Chenopodium ficifolium germinated seed assessed as growth inhibition at 10 mg/L after 72 hr by culture dish method
Echinochloa crus-galli [6] = assay: Phytotoxicity against Echinochloa crus-galli (barnyard grass) germinated seed assessed as growth inhibition at 100 mg/L after 72 hr by culture dish method
Digitaria ciliaris [7] = assay: Phytotoxicity against Digitaria ciliaris germinated seed assessed as growth inhibition at 10 mg/L after 72 hr by culture dish method
Brassica napus [8] = assay: Phytotoxicity against Brassica napus (oilseed rape) germinated seed assessed as growth inhibition at 10 mg/L after 72 hr by culture dish method

Compound	inhibition of growth at 100 µg/mL (Digitaria ciliaris [1]) [%]	inhibition of growth at 100 µg/mL (Brassica napus [2]) [%]	inhibition of growth at 10 µg/mL (Echinochloa crus-galli [3]) [%]	inhibition of growth at 100 µg/mL (Chenopodium ficifolium [4]) [%]	inhibition of growth at 10 µg/mL (Chenopodium ficifolium [5]) [%]	inhibition of growth at 100 µg/mL (Echinochloa crus-galli [6]) [%]	inhibition of growth at 10 µg/mL (Digitaria ciliaris [7]) [%]	inhibition of growth at 10 µg/mL (Brassica napus [8]) [%]
CSc1cc(C)nc(NC(=S)NC(=O)c2c(-c3ccc(Cl)cc3Cl)noc2C)n1	45.5	73.6	27.4	86.1	32.8	47.1	26.7	42.4
COc1cc(Cl)nc(NC(=S)NC(=O)c2c(-c3ccc(Cl)cc3Cl)noc2C)n1	62.2	61	18.5	53.2	21.9	56.3	14.6	30.7
COc1cc(OC)nc(NC(=S)NC(=O)c2c(-c3ccc(Cl)cc3Cl)noc2C)n1	65.9	70.8	21.8	78.6	30.7	60.9	32	35.2
COc1cc(SC)nc(NC(=S)NC(=O)c2c(-c3ccc(Cl)cc3Cl)noc2C)n1	55.6	69.2	19.3	60.3	-8.31	40.9	34.8	18.7
Cc1cc(C)n2s/c(=N\C(=O)c3c(-c4ccc(Cl)cc4Cl)noc3C)nc2n1	84.9	76.8	25.2	76.9	26.7	76	15.2	46.3
Cc1cc(O)n2s/c(=N\C(=O)c3c(-c4ccc(Cl)cc4Cl)noc3C)nc2n1	72.1	79.2	30.5	59.3	32.9	65.8	30.1	38.5
Cc1onc(-c2ccc(Cl)cc2Cl)c1C(=O)/N=c1/nc2nc(Cl)cc(C)n2s1	68.1	70.2	25.8	73.6	18.6	55.6	32.8	20.1
COc1cc(C)nc2n/c(=N/C(=O)c3c(-c4ccc(Cl)cc4Cl)noc3C)sn12	80.6	80.6	30.9	80.4	45.7	80.5	50.3	26.4
CSc1cc(C)nc2n/c(=N/C(=O)c3c(-c4ccc(Cl)cc4Cl)noc3C)sn12	70.6	62.8	37.5	75.2	21.9	75.4	26.8	32.8
COc1cc(Cl)nc2n/c(=N/C(=O)c3c(-c4ccc(Cl)cc4Cl)noc3C)sn12	72.8	70.8	10.8	65.9	19.3	40.8	16.5	28.6
COc1cc(OC)n2s/c(=N\C(=O)c3c(-c4ccc(Cl)cc4Cl)noc3C)nc2n1	85.3	85.6	43.2	82.7	28.9	85.6	53.8	49.3
COc1cc(SC)nc2n/c(=N/C(=O)c3c(-c4ccc(Cl)cc4Cl)noc3C)sn12	79.6	75.8	21.4	68.3	23.8	55.6	19.8	27.4
Cc1cc(C)nc(NC(=S)NC(=O)c2c(-c3ccc(Cl)cc3Cl)noc2C)n1	61.4	68	18.5	65.4	16.9	64.7	26.5	16.1
Cc1cc(O)nc(NC(=S)NC(=O)c2c(-c3ccc(Cl)cc3Cl)noc2C)n1	49.3	52.3	-9.78	46.7	-5.86	46.8	-6.24	6.7
Cc1cc(Cl)nc(NC(=S)NC(=O)c2c(-c3ccc(Cl)cc3Cl)noc2C)n1	44.2	50.8	-6.84	48.3	28.9	48.7	10.2	8.36
COc1cc(C)nc(NC(=S)NC(=O)c2c(-c3ccc(Cl)cc3Cl)noc2C)n1	60.2	69.3	12.3	59.8	15.3	61.8	30.2	15.7
CCOC(=O)[C@@H](C)Oc1ccc(Oc2nc3ccc(Cl)cc3o2)cc1 [FENOXAPROP-P-ETHYL]	85.6	42.2	58.4	48.7	16.8	71.8	35.7	16.4
